We go through ten compounds from ChEMBL document CHEMBL5233249, “Recent advancements in the development of heterocyclic anti-inflammatory agents” (Eur J Med Chem, 2020).

Assay [1] deals with RAW264.7. As to the kind of experiment: Anti-inflammatory activity in mouse RAW264.7 cells assessed as inhibition of LPS-induced TNFalpha production measured after 24 hrs by EIA method relative to control. The assay is classed as functional. More on the design: scale not given: the % may be the effect or the level left.
The subject of assay [2] is RAW264.7. As to the kind of experiment: Anti-inflammatory activity in mouse RAW264.7 cells assessed as inhibition of LPS-induced TNFalpha production measured after 24 hrs by EIA method. Format: functional, cell-based. Particulars: RAW264.7, 24 h.
Assay [3] has as its system RAW264.7. As to the kind of experiment: Anti-inflammatory activity in mouse RAW264.7 cells assessed as inhibition of LPS-induced IL-6 production measured after 24 hrs by EIA method. Format: functional, cell-based. Particulars: RAW264.7, 24 h.
Assay [4] concerns RAW264.7. As to the kind of experiment: Anti-inflammatory activity in mouse RAW264.7 cells assessed as inhibition of LPS-induced NO production. The assay is classed as functional, cell-based.
The subject of assay [5] is Rattus norvegicus. Briefly: Anti-inflammatory activity in Carrageenan-induced paw edema in Wistar albino rat assessed as inhibition of paw edema measured after 2 hr relative to control. Format: functional.
Assay [6] concerns Rattus norvegicus. Briefly: Anti-inflammatory activity in Carrageenan-induced paw edema in Wistar albino rat assessed as inhibition of paw edema measured after 1 hr relative to control. Format: functional.
Assay [7] has as its system Rattus norvegicus. As to the kind of experiment: Anti-inflammatory activity in Carrageenan-induced paw edema in Wistar albino rat assessed as inhibition of paw edema measured after 6 hr relative to control. The assay is classed as functional.
Assay [8] has as its target T1, Prostaglandin G/H synthase 2 (Homo sapiens, UniProt P35354).
T1 sequence (P35354 whole entry): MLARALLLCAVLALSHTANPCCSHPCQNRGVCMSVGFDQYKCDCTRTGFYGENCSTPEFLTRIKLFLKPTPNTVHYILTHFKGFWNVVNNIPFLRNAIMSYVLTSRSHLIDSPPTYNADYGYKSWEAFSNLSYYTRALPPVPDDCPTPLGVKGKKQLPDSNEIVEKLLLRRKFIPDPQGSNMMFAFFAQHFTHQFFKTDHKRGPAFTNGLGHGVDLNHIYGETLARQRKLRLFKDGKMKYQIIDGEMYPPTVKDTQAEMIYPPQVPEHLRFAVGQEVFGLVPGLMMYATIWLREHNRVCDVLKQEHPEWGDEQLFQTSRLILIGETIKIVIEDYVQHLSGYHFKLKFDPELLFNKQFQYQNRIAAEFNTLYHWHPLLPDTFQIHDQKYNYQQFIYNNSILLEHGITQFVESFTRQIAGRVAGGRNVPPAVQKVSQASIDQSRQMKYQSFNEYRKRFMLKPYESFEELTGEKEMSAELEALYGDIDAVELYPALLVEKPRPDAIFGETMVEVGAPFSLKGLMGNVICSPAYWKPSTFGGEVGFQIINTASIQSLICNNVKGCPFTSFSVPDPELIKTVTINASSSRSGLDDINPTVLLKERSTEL
Briefly: Inhibition of COX-2 (unknown origin) at 0.1 uM.

Assay [9] deals with RAW264.7. Briefly: Anti-inflammatory activity in mouse RAW264.7 cells assessed as LPS-induced reduction in NO production measured after 24 hrs. Conditions: RAW264.7, 24 h. Format: functional, cell-based.
Assay [10] relates to RAW264.7. Briefly: Anti-inflammatory activity in mouse RAW264.7 cells assessed as inhibition of LPS-induced NO production measured after 24 hrs. Particulars: RAW264.7, 24 h. The assay is classed as functional, cell-based.
The test system of assay [11] is Rattus norvegicus. Briefly: Ulcerogenic activity in Swiss albino Wistar rat assessed as ulcer lesion score at 100 mg/kg, po. The assay is classed as functional.
In assay [12] the test system is Mus musculus. As to the kind of experiment: Anti-inflammatory activity against Carrageenan-induced paw edema in mouse model assessed as inhibition of edema at 100 mg/kg measured after 4 hrs relative to control. Format: functional. Set-up: scale not given: the % may be the effect or the level left.
In assay [13] the test system is Rattus norvegicus. Briefly: Anti-inflammatory activity in Carrageenan-induced paw edema in Wistar albino rat assessed as reduction in paw edema measured after 1 hr relative to control. The assay is classed as functional. Set-up: scale not given: the % may be the effect or the level left.
The test system of assay [14] is Rattus norvegicus. Briefly: Anti-inflammatory activity in Carrageenan-induced paw edema in Wistar albino rat assessed as reduction in paw edema measured after 2 hr relative to control. Format: functional. Set-up: scale not given: the % may be the effect or the level left.
For assay [15], the system named is Rattus norvegicus. As to the kind of experiment: Anti-inflammatory activity in Carrageenan-induced paw edema in Wistar albino rat assessed as reduction in paw edema measured after 3 hr relative to control. The assay is classed as functional. More on the design: scale not given: the % may be the effect or the level left.
The test system of assay [16] is Rattus norvegicus. Briefly: Anti-inflammatory activity against Carrageenan-induced paw edema in Wistar albino rat ulcerogenic activity assessed as reduction in severity index. The assay is classed as functional.
Assay [17] deals with Mus musculus. As to the kind of experiment: Anti-inflammatory activity against dimethylbenzene-induced auricular edema Kunming mouse model assessed as inhibition of ear edema at 100 mg/kg, po administered once daily relative to control. Format: functional. Set-up: scale not given: the % may be the effect or the level left.
Assay [18] deals with Mus musculus. As to the kind of experiment: Anti-inflammatory activity against dimethylbenzene-induced auricular edema Kunming mouse model assessed as inhibition of ear edema at 50 mg/kg, po administered once daily relative to control. The assay is classed as functional. More on the design: scale not given: the % may be the effect or the level left.
Assay [19] concerns Rattus norvegicus. As to the kind of experiment: Anti-ulcerative activity in Carrageenan-induced paw edema Swiss albino rat ulcer model assessed as inhibition of ulcer index at 10 mg/kg,po. The assay is classed as functional.
Assay [20] concerns Mus musculus. As to the kind of experiment: Analgesic activity in PO dosed Swiss albino mouse assessed as protection of paw edema measured after 2 hrs at 20 mg/kg relative to control. The assay is classed as functional.
Assay [21] has as its system Rattus norvegicus. As to the kind of experiment: Anti-inflammatory activity in Carrageenan-induced paw edema in Wistar albino rat assessed as inhibition of edema measured after 3 hrs relative to control. The assay is classed as functional.
The test system of assay [22] is Rattus norvegicus. As to the kind of experiment: Anti-ulcerative activity in aspirin induced Wistar rat ulcer model assessed as inhibition of ulcer index at 20 mg/kg,po. The assay is classed as functional.
A short description of assay [23]: Selectivity index, ratio of IC50 for ovine COX1 to IC50 for recombinant human COX2.

As for `COc1cc(OC)c2c(c1)OCC/C(=C\Cc1ccccn1)C2=O`, in the assay with RAW264.7 [1], the Activity amounted to 92.5%.
As for `CCCCc1nn(C)c2c(NCCCN3CCOCC3)nc(/C=C/c3cc(OC)c(OC)c(OC)c3)nc12`, the IC50 turned out to be 4.38 µM in the assay with RAW264.7 [2], 2640 nM in the assay on RAW264.7 [3] and 5.63 µM in the assay with RAW264.7 [4].
Consider `CC(=O)N(CN1C(=O)/C(=C\c2nnc(-c3ccc(-c4ccncc4)cc3)s2)c2ccccc21)C1C(c2ccc(O)cc2)=NNC1S` (centres undefined), for which the entries for the “inhibition (INH)” value in the assay on Rattus norvegicus [5], in the assay on Rattus norvegicus [6] and in the assay on Rattus norvegicus [7] were 10.53%, 20% and 57.14%, respectively. Further, the IC50 in assay [8] stood at 71.1 µM.
For the compound `COc1cc(-c2cc3ccccc3nc2C(=O)c2ccc(F)cc2)cc(OC)c1OC`, the IC50 in the assay on RAW264.7 [9] was found to be 7.41 µM; in the assay on RAW264.7 [10], 15.4 µM.
Consider `O=C(NCn1c(CCl)nc2ccccc21)c1ccc(Cl)cc1`, for which the Activity is reported as 12.25 mm in the assay with Rattus norvegicus [11] and 66.66% with Mus musculus [12].
Regarding `Clc1ccccc1-c1nnc(Cn2c(CN3CCOCC3)nc3ccccc32)o1`, the Activity with Rattus norvegicus [13] is 38.54%; with Rattus norvegicus [14] it was 67.12%; with Rattus norvegicus [15], 74.17%; in the assay on Rattus norvegicus [16], 0.28 mm.
Consider `c1ccc([Se]CC2CC(c3ccccc3)=NO2)cc1` (centres undefined), for which the Activity with Mus musculus [17] was 74%; in the assay on Mus musculus [18] it was 51%.
Consider `COc1ccc(C(=O)c2nc3ccccc3cc2-c2cc(OC)c(OC)c(OC)c2)cc1`, for which the IC50 with RAW264.7 [9] amounted to 6.7 µM.
For `CC1=NN(c2ccc(Cl)cc2)C(=O)/C1=N\Nc1ccc(-c2nc3ccccc3[nH]2)cc1`, in the assay on Rattus norvegicus [19], the UI was determined as 0.53. The Activity with Mus musculus [20] stood at 67%.
As to `CCc1c(-c2ccccc2)n(C(=O)c2ccc(F)cc2)c2ccc(S(C)(=O)=O)cc12`, the “inhibition (INH)” value in the assay on Rattus norvegicus [21] turned out to be 90.5%. Besides, the UI in the assay on Rattus norvegicus [22] is 7.3. Moreover, the Selectivity Index in assay [23] amounted to 65.7.
